Results as given in patent US11447500B2, “Thienopyridine derivatives and pharmaceutical composition comprising same” (WELLMARKER BIO CO., LTD., priority 2018, dated 2022).
pIC50: −log10 of the molar value. Structures can show the parent of a compound that is named as a salt.

Experiments:
[1] = test system: RON-mutated (Δ160) HT-29 colon cancer cell line; experiment: Cell killing efficacy, trypan blue exclusion assay, HT-29; format: cell-based; conditions: HT29 cell, 48 hours
Protocol: (§1) Two colon cancer cell lines, RON-activated KM12C (80015, KCLB, MEM+10% FBS) and RON-mutated (Δ160) HT-29 (30038, KCLB, RPMI+10% FBS) were prepared in 6-well plates at 5×10^4 cells/well, respectively. After 24 hours, while freshly changing the medium, the sample compounds were added to the wells at a concentration of 1 μM or 5 μM and the plates were allowed to stand for 48 hours.
(§2) As the sample compounds, the compounds synthesized in the examples of the present invention and the compounds of the comparative examples were used.
(§3) After 48 hours, the cell suspensions were collected and centrifuged (1,500 rpm, 4 min.) to obtain the cells, and live cells and dead cells were quantitated (n=2) through a trypan blue (15250-061, Gibco) exclusion assay. The statistical analysis was performed using Excel™ T-test from Microsoft.
(§4) The cell death rates of the compounds of Examples and Comparative Examples were respectively measured and the results are shown in Table 4 as relative ratios to Comparative Example 1.

RON kinase = biological target: T1, RON kinase (Homo sapiens, UniProt Q04912); experiment: RON kinase enzyme inhibitory activity, FRET (TR-FRET) technique; format: biochemical; conditions: 60 min reaction
T1 construct: purchased Carna Bioscience
T1 sequence (Q04912 25-1400): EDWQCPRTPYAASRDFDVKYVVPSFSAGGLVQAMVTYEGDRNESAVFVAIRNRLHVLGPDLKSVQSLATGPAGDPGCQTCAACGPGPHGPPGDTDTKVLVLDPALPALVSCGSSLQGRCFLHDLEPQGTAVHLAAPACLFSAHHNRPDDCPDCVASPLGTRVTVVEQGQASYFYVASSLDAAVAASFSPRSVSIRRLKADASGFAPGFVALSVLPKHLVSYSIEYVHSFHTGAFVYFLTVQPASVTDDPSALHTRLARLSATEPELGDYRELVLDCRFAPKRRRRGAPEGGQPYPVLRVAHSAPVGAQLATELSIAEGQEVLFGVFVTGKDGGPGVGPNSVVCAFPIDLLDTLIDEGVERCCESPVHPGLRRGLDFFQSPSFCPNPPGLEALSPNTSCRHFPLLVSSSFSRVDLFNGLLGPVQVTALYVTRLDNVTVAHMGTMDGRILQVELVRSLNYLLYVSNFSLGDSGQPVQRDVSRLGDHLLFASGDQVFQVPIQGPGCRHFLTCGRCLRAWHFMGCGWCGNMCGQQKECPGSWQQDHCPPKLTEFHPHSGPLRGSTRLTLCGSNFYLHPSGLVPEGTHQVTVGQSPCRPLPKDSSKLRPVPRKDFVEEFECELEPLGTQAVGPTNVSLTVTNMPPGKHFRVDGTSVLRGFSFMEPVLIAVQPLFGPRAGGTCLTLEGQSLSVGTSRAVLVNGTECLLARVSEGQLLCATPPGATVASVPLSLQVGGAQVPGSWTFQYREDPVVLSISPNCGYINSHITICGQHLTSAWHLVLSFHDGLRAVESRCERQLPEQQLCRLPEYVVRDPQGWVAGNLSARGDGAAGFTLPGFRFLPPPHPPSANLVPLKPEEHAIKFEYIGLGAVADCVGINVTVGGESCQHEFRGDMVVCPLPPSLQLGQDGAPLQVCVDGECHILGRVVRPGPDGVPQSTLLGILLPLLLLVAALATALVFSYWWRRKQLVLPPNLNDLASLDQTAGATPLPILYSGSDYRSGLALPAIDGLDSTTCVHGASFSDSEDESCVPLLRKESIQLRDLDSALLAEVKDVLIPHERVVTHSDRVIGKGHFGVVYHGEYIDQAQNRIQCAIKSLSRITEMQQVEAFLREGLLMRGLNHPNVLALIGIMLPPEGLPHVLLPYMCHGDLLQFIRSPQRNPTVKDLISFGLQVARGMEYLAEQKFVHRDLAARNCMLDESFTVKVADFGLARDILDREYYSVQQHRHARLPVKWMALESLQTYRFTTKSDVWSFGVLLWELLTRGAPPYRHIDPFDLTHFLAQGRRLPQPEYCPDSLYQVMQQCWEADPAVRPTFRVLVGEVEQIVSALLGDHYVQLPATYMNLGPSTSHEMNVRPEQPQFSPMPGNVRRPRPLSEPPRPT
Protocol: The enzyme inhibitory activity (IC50) of the thienopyridine derivative was measured using FRET (fluorescence resonance energy transfer) technique. RON kinase (Carna Bioscience) was diluted with a kinase assay buffer (50 mM HEPES pH 7.5, 1 mM EGTA, 10 mM MgCl2, 2 mM DTT, and 0.01% Tween-20) to a concentration of 2× (0.4 nM) the final reaction concentration and the dilution was added to a 384-well plate at 5 μL/well. As sample compounds, the compounds synthesized in the examples of the present invention and the compounds of the comparative examples were used. The sample compounds were respectively dissolved in 100% DMSO to obtain 1 mM stock solutions, which were then subjected to eight 10-fold serial dilutions. The sample compounds were diluted with the kinase assay buffer to a concentration of 4× the final reaction concentration, and the dilutions were added to the 384-well plate at 2.5 μL/well. The plate was incubated at room temperature for 15 minutes. Next, 0.25 M ATP solution (Sigma Aldrich) was diluted with the kinase reaction buffer to a concentration of 4× (60 μM) the final reaction concentration, and a tyrosine peptide substrate (Perkin-Elmer) was diluted therein to a concentration of 4× (400 nM) the final reaction concentration. The dilution was added to the 384-well plate at 2.5 μL/well. Then, the 384-well plate was incubated at room temperature and the reaction was allowed to proceed for 60 minutes. After 60 minutes, EDTA (Sigma Aldrich) was diluted with TR-FRET detection buffer (Perkin-Elmer) to a concentration of 4× (40 mM) the final reaction concentration. A europium-labeled anti-phosphotyrosine antibody (Perkin-Elmer) was diluted in the above EDTA dilution to a concentration of 4× (8 nM) the final reaction concentration to prepare a stop solution of the RON kinase reaction. The stop solution was added to the 384-well plate at 10 μL/well to terminate the reaction, and the plate was incubated at room temperature for 60 minutes. Thereafter, the plate was read on Victor X5 plate reader (Perkin-Elmer). At this time, the excitation wavelength was 340 nm and the emission wavelengths were 620 nm and 665 nm. The IC50 values of the sample compounds were determined using GraphPad Prism™ 5 by expressing the emission energy at 665 nm as a function of the sample compound concentration.

HT29 cells = experiment: Cytotoxicity MTS assay, HT29; format: cell-based; conditions: Homo sapiens, HT-29, 72 hours
Protocol: (§5) In order to confirm the specific cytotoxicity of the drugs, the cultured cells were treated with 0.05% trypsin/EDTA (0.5% trypsin EDTA (10×), Product No.: 15400-054, GIBCO) to detach them from the culture dish, and 3,000 cells (KM12C) or 2,000 cells (HT29, Colo 320 HSR) were dispensed into each well.
(§6) After 24 hours, sample compounds were dissolved in DMSO (Product No.: D8418-250ML, SIGMA) to make 10 mM stock solutions. As the sample compounds, the compounds synthesized in the examples of the present invention and the compounds of the comparative examples were used.
(§7) The cells were treated with the sample compound dilutions, and cultured in a 5% CO2 incubator at 37° C. for 72 hours.
(§8) Thereafter, 20 μL of MTS solution (CellTiter™ 96 Aqueous One Solution Cell Proliferation Assay, Product No.: G3581, Promega) was dispensed into each well and mixed well, and the cells were incubated for 1 to 4 hours at 37° C. in a 5% CO2 incubator.

KM12C cells = experiment: Cytotoxicity MTS assay, KM12C; format: cell-based; conditions: Homo sapiens, 72 hours
Protocol: as §5, §6, §7, §8

[2] = test system: RON-activated KM12C colon cancer cell line; experiment: Cell killing efficacy, trypan blue exclusion assay, KM12C; format: cell-based; conditions: 48 hours
Protocol: as §1, §2, §3, §4

pIC50 (RON kinase) | Compound | Cell death rate (Relative to Comp. Ex. 1) ([1]; 1 μM) | Cell death rate (Relative to Comp. Ex. 1) ([1]; 5 μM) | pIC50 (HT29 cells) | pIC50 (KM12C cells) | Cell death rate (Relative to Comp. Ex. 1) ([2]; 1 μM) | Cell death rate (Relative to Comp. Ex. 1) ([2]; 5 μM)
8.95 | CCOc1ccn(-c2ccc(F)cc2)c(=O)c1C(=O)Nc1ccc(Oc2ccnc(N)c2Cl)c(F)c1 [Comp. Ex. 1, N-{4-[(2-amino-3-chloro-4-pyridinyl)oxy]-3-fluorophenyl}-4-ethoxy-1-(4-fluorophenyl)-2-oxo-1,2-dihydro-3-pyridinecarboxamide, reference compound] | x 1.00 | x 1.00 | 4.70 to 5.00 | 6.29 | x 1.00 | x 1.00
8.54 | COc1ccc2c(Oc3ccc(NC(=O)c4c(C)n(CC(C)(C)O)n(-c5ccccc5)c4=O)cc3F)ccnc2c1 [Comp. Ex. 2, N-(3-fluoro-4-(7-methoxyquinolin-4-yloxy)phenyl)-1-(2-hydroxy-2-methylpropyl)-5-methyl-3-oxo-2-phenyl-2,3-dihydro-1H-pyrazole-4-carboxamide, reference compound] | x 0.59 | x 0.32 |  |  | x 0.38 | x 0.31
10.00 | COCCNCc1ccc(-c2cc3nccc(Oc4ccc(NC(=O)c5c(OC)ccn(-c6ccc(F)cc6)c5=O)cc4F)c3s2)nc1.Cl [Example 2, N-(3-fluoro-4-{[2-(5-{[(2-methoxyethyl)amino]methyl}pyridin-2-yl)thieno[3,2-b]pyridin-7-yl]oxy}phenyl)-1-(4-fluorophenyl)-4-methoxy-2-oxo-1,2-dihydropyridine-3-carboxamide Hydrochloride] | x 0.62 | x 1.15 |  |  | x 1.33 | x 0.74
9.38 | COCCNCc1ccc(-c2cc3nccc(Oc4ccc(NC(=O)c5c(OC)ccn(-c6ccccc6)c5=O)cc4F)c3s2)nc1.Cl [Example 3, N-(3-fluoro-4-{[2-(5-{[(2-methoxyethyl)amino]methyl}pyridin-2-yl)thieno[3,2-b]pyridin-7-yl]oxy}phenyl)-4-methoxy-2-oxo-1-phenyl-1,2-dihydropyridine-3-carboxamide Hydrochloride] | x 1.80 | x 2.22 |  |  | x 0.66 | x 1.26
9.17 | COCCNCc1ccc(-c2cc3nccc(Oc4ccc(NC(=O)c5cccn(-c6ccc(F)cc6)c5=O)cc4F)c3s2)nc1.Cl [Example 4, N-(3-fluoro-4-{[2-(5-{[(2-methoxyethyl)amino]methyl}pyridin-2-yl)thieno[3,2-b]pyridin-7-yl]oxy}phenyl)-1-(4-fluorophenyl)-2-oxo-1,2-dihydropyridine-3-carboxamide Hydrochloride] | x 3.51 | x 3.63 |  |  | x 0.59 | x 0.80
9.55 | CCOc1ccn(-c2ccc(F)cc2)c(=O)c1C(=O)Nc1ccc(Oc2ccnc3cc(-c4ccc(CNCCOC)cn4)sc23)c(F)c1.Cl [Example 7, 4-ethoxy-N-(3-fluoro-4-{[2-(5-{[(2-methoxyethyl)amino]methyl}pyridin-2-yl)thieno[3,2-b]pyridin-7-yl]oxy}phenyl)-1-(4-fluorophenyl)-2-oxo-1,2-dihydropyridine-3-carboxamide Hydrochloride] | x 2.97 | x 2.90 |  |  | x 2.38 | x 1.32
11.00 | CCOc1ccn(-c2ccc(Cl)cc2)c(=O)c1C(=O)Nc1ccc(Oc2ccnc3cc(-c4ccc(CNCCOC)cn4)sc23)c(F)c1.Cl [Example 8, 1-(4-chlorophenyl)-4-ethoxy-N-(3-fluoro-4-{[2-(5-{[(2-methoxyethyl)amino]methyl}pyridin-2-yl)thieno[3,2-b]pyridin-7-yl]oxy}phenyl)-2-oxo-1,2-dihydropyridine-3-carboxamide Hydrochloride] | x 2.24 | x 2.52 |  |  | x 0.92 | x 1.19
10.10 | COCCNCc1ccc(-c2cc3nccc(Oc4ccc(NC(=O)c5c(OC)ccn(-c6ccc(F)cc6)c5=O)cc4Cl)c3s2)nc1.Cl [Example 9, N-(3-chloro-4-{[2-(5-{[(2-methoxyethyl)amino]methyl}pyridin-2-yl)thieno[3,2-b]pyridin-7-yl]oxy}phenyl)-1-(4-fluorophenyl)-4-methoxy-2-oxo-1,2-dihydropyridine-3-carboxamide Hydrochloride] | x 4.08 | x 3.53 |  |  | x 2.26 | x 2.87
9.59 | COCCNCc1ccc(-c2cc3nccc(Oc4ccc(NC(=O)c5c(OC)ccn(-c6ccc(F)cc6)c5=O)cc4)c3s2)nc1.Cl [Example 11, 1-(4-fluorophenyl)-4-methoxy-N-(4-{[2-(5-{[(2-methoxyethyl)amino]methyl}pyridin-2-yl)thieno[3,2-b]pyridin-7-yl)oxy)phenyl)-2-oxo-1,2-dihydropyridine-3-carboxamide Hydrochloride] | x 1.16 | x 0.94 |  |  | x 0.99 | x 1.65
9.11 | COCCNCc1ccc(-c2cc3nccc(Oc4ccc(NC(=O)c5c(C)cnn(-c6ccccc6)c5=O)cc4F)c3s2)nc1.Cl [Example 18, N-(3-fluoro-4-{[2-(5-{[(2-methoxyethyl)amino]methyl}pyridin-2-yl)thieno[3,2-b]pyridin-7-yl]oxy}phenyl)-5-methyl-3-oxo-2-phenyl-2,3-dihydropyridazine-4-carboxamide Hydrochloride] | x 1.33 | x 1.37 |  |  | x 0.56 | x 1.09
9.64 | CCOc1ccn(-c2ccccc2)c(=O)c1C(=O)Nc1ccc(Oc2ccnc3cc(-c4ccc(CN5CCN(C)CC5)cn4)sc23)c(F)c1.Cl [Example 34, Hydrochloride] |  |  | 6.89 | 8.22 |  | 

Compound | pIC50 (RON kinase) | Cell death rate (Relative to Comp. Ex. 1) ([1]; 1 μM) | Cell death rate (Relative to Comp. Ex. 1) ([1]; 5 μM) | pIC50 (HT29 cells) | pIC50 (KM12C cells) | Cell death rate (Relative to Comp. Ex. 1) ([2]; 1 μM) | Cell death rate (Relative to Comp. Ex. 1) ([2]; 5 μM)
CCOc1ccn(-c2ccc(F)cc2)c(=O)c1C(=O)Nc1ccc(Oc2ccnc3cc(-c4ccc(CN(C)CCOC)cn4)sc23)c(F)c1 [Example 30, 4-ethoxy-N-(3-fluoro-4-{[2-(5-{[(2-methoxyethyl)(methyl)amino]methyl}pyridin-2-yl)thieno[3,2-b]pyridin-7-yl]oxy}phenyl)-1-(4-fluorophenyl)-2-oxo-1,2-dihydropyridine-3-carboxamide Hydrochloride] | 9.06 | x 1.34 | x 1.07 |  |  | x 2.48 | x 2.06
